According to the NIST ThermoML archive (doi:10.1016/j.fluid.2014.06.021):
Numbers after ± are expanded uncertainties.

Conditions: 101.33 kPa, Liquid, Vibrating tube method

C[n+]1ccn(CCCCS(=O)(=O)O)c1.O=S(=O)([N-]S(=O)(=O)C(F)(F)F)C(F)(F)F
Conditions | mass density [kg/m3]
298.15 K | 1577 ± 2
299.45 K | 1575.8 ± 2.3
300.75 K | 1574.9 ± 2.3
302.15 K | 1573.7 ± 2.3
303.45 K | 1572.7 ± 2.3
304.75 K | 1571.5 ± 2.3
305.85 K | 1570.5 ± 2.3
307.15 K | 1569.2 ± 2.3
308.65 K | 1568 ± 2
310.35 K | 1566.7 ± 2.2
311.75 K | 1565.5 ± 2.2
313.05 K | 1564.3 ± 2.2
314.45 K | 1563.2 ± 2.2
315.85 K | 1562 ± 2
317.25 K | 1560.9 ± 2.2
318.75 K | 1559.8 ± 2.2
320.05 K | 1558.8 ± 2.2
321.45 K | 1557.7 ± 2.2
322.85 K | 1556.4 ± 2.2
324.65 K | 1554.8 ± 2.2
326.65 K | 1553.4 ± 2.2
328.45 K | 1551.8 ± 2.2
338.55 K | 1543.9 ± 2.2
343.5 K | 1539.7 ± 2.2

C[n+]1ccn(CCCCS(=O)(=O)O)c1.O=S(=O)([O-])C(F)(F)F
Conditions | mass density [kg/m3]
298.15 K | 1478.4 ± 2
299.45 K | 1478 ± 2
300.75 K | 1477 ± 2
302.15 K | 1476.1 ± 2
303.45 K | 1475.3 ± 2
304.75 K | 1474.7 ± 2
305.85 K | 1473.8 ± 2
307.15 K | 1472.8 ± 2
308.65 K | 1472 ± 2
310.35 K | 1470.9 ± 2
311.75 K | 1470.1 ± 2
313.05 K | 1469.3 ± 2
314.45 K | 1468.2 ± 2
315.85 K | 1467.3 ± 2
317.25 K | 1466.3 ± 2
318.75 K | 1465.6 ± 2
320.05 K | 1464.8 ± 2
321.45 K | 1463.7 ± 2
322.85 K | 1462.7 ± 1.9
324.65 K | 1461.5 ± 1.9
326.65 K | 1461.3 ± 1.9
328.45 K | 1460.2 ± 1.9
338.55 K | 1453.7 ± 1.9
343.5 K | 1450.6 ± 1.9

C[n+]1ccn(CCCCS(=O)(=O)O)c1.O=S(=O)([O-])O [1-methyl-3-(4-sulfobutyl)-imidazolium hydrogensulfate]
Conditions | mass density [kg/m3]
298.15 K | 1437.7 ± 1.9
299.45 K | 1436.9 ± 1.9
300.75 K | 1436.3 ± 1.9
302.15 K | 1435.4 ± 1.9
303.45 K | 1434.8 ± 1.9
304.75 K | 1434 ± 2
305.85 K | 1433.3 ± 1.9
307.15 K | 1432.4 ± 1.9
308.65 K | 1431.7 ± 1.9
310.35 K | 1430.8 ± 1.9
311.75 K | 1430 ± 2
313.05 K | 1429.3 ± 1.9
314.45 K | 1428.5 ± 1.9
315.85 K | 1427.8 ± 1.9
317.25 K | 1426.9 ± 1.8
318.75 K | 1426.4 ± 1.8
320.05 K | 1425.8 ± 1.8
321.45 K | 1424.7 ± 1.8
322.85 K | 1423.9 ± 1.8
324.65 K | 1423.2 ± 1.8
326.65 K | 1422.1 ± 1.8
328.45 K | 1421.2 ± 1.8
338.55 K | 1414.5 ± 1.8
343.5 K | 1411.7 ± 1.8
